Assays:
[1] = Cytotoxicity (CC50) during the luciferase gene reporter assay; type: cell-based; conditions: human, HEK293 cells; short treatment duration of the luciferase gene reporter assay
[2] = test system: Wnt/β-Catenin signaling pathway; assay: Wnt signaling luciferase (TOPflash) reporter gene assay; type: cell-based; conditions: for IC50: luciferase reporter gene assay, mean of three independent experiments, read-out: IC50 (nM) to inhibit the Wnt signaling activity
Excerpt: A dual-luciferase gene reporter assay was used to test inhibitory activities of new compounds on Wnt signaling. […] Therefore, the effects of new compounds on AMPK was examined. […]

Row | Compound | CC50 [1] [µM] | inhibition at 1 µM [2] [%] | IC50 [2] [nM]
1 | Cc1ccccc1-n1nnc(C(=O)Nc2nc3ccc(C(F)(F)F)cc3s2)c1C [YA4063, 5-Methyl-1-(o-tolyl)-N-(6-(trifluoromethyl)benzo[d]thiazol-2-yl)-1H-1,2,3-triazole-4-carboxamide] | > 92 | 24 | > 1000
2 | Cc1ccccc1-n1nnc(C(=O)Nc2nc3ccc(OC(F)(F)F)cc3s2)c1C [YA4065, 5-Methyl-1-(o-tolyl)-N-(6-(trifluoromethoxy)benzo[d]thiazol-2-yl)-1H-1,2,3-triazole-4-carboxamide] | > 92 | 16 | > 1000
3 | Cc1ccccc1-n1nnc(C(=O)Nc2nc3ccccc3o2)c1C [YA4067] | > 92 | 14 | > 1000
4 | Cc1ccc2nc(NC(=O)c3nnn(-c4ccccc4C)c3C)sc2c1 [YA4069, 5-Methyl-N-(6-methylbenzo[d]thiazol-2-yl)-1-(o-tolyl)-1H-1,2,3-triazole-4-carboxamide] | > 92 |  | 15
5 | Cc1ccccc1-n1nnc(C(=O)Nc2nc3ccc(Cl)cc3s2)c1C [YA4071, N-(6-Chlorobenzo[d]thiazol-2-yl)-5-methyl-1-(o-tolyl)-1H-1,2,3-triazole-4-carboxamide] | > 92 |  | 67
6 | Cc1ccccc1-n1nnc(C(=O)Nc2ncc(-c3ccccc3)s2)c1C [YA4085, 5-Methyl-N-(5-phenylthiazol-2-yl)-1-(o-tolyl)-1H-1,2,3-triazole-4-carboxamide] | > 92 | 37 | > 1000
7 | Cc1c(C(=O)Nc2nc(-c3ccccc3)cs2)cnn1-c1ccccc1Br [YA4087, 1-(2-Bromophenyl)-5-methyl-N-(4-phenylthiazol-2-yl)-1H-pyrazole-4-carboxamide] | > 92 |  | > 1000
8 | COc1ccc2nc(NC(=O)c3nnn(-c4ccccc4C)c3C)sc2c1 [YA4091, N-(6-Methoxybenzo[d]thiazol-2-yl)-5-methyl-1-(o-tolyl)-1H-1,2,3-triazole-4-carboxamide] | > 92 | 12 | > 1000
9 | Cc1ccccc1-n1nnc(C(=O)Nc2nc3c(F)cccc3s2)c1C [YA4093, N-(4-Fluorobenzo[d]thiazol-2-yl)-5-methyl-1-(o-tolyl)-1H-1,2,3-triazole-4-carboxamide] | > 92 | 37 | > 1000
10 | Cc1ccccc1-n1nnc(C(=O)Nc2nc3c(Cl)cccc3s2)c1C [YA4095, N-(4-Chlorobenzo[d]thiazol-2-yl)-5-methyl-1-(o-tolyl)-1H-1,2,3-triazole-4-carboxamide] | > 92 | 8 | > 1000
11 | Cc1ccccc1-n1nnc(C(=O)Nc2nc3c(Br)cccc3s2)c1C [YA4097, N-(4-Bromobenzo[d]thiazol-2-yl)-5-methyl-1-(o-tolyl)-1H-1,2,3-triazole-4-carboxamide] | > 92 | 11 | > 1000
12 | Cc1ccccc1-n1nnc(C(=O)Nc2nc3cc(F)ccc3s2)c1C [YA4101, N-(5-Fluorobenzo[d]thiazol-2-yl)-5-methyl-1-(o-tolyl)-1H-1,2,3-triazole-4-carboxamide] | > 92 |  | 16
13 | Cc1ccccc1-n1nnc(C(=O)Nc2nc3ccc(F)cc3s2)c1C [YA4103, N-(6-Fluorobenzo[d]thiazol-2-yl)-5-methyl-1-(o-tolyl)-1H-1,2,3-triazole-4-carboxamide] | > 92 |  | 4
14 | Cc1ccccc1-n1nnc(C(=O)Nc2nc(-c3ccccc3)c(-c3ccccc3)s2)c1C [YA4133, N-(4,5-Diphenylthiazol-2-yl)-5-methyl-1-(o-tolyl)-1H-1,2,3-triazole-4-carboxamide] | > 92 | 49 | > 1000
15 | Cc1ccccc1-n1nnc(C(=O)Nc2nc(-c3ccccc3Br)cs2)c1C [YA4135] | > 92 |  | > 1000
16 | Cc1cc(C(=O)Nc2nc3ccccc3s2)c(C)n1-c1ccccc1 [YA4136] | > 92 |  | > 1000
17 | Cc1ccccc1C1CCC(C(=O)Nc2nc3ccccc3s2)C1 (stereo not drawn) [YA4138] | > 92 |  | > 1000
18 | Cc1ccc(-c2csc(NC(=O)c3nnn(-c4ccccc4C)c3C)n2)cc1 [YA4141] | > 92 |  | > 1000
19 | Cc1ccccc1-n1nnc(C(=O)Nc2nc(-c3ccccc3F)cs2)c1C [YA4143] | > 92 |  | > 1000
20 | Cc1ccccc1-n1nnc(C(=O)Nc2nc(-c3ccccc3Cl)cs2)c1C [YA4145] | > 92 |  | > 1000
21 | Cc1c(C(=O)Nc2nc3ccc(F)cc3s2)nnn1-c1ccccc1F [YA4155, N-(6-Fluorobenzo[d]thiazol-2-yl)-1-(2-fluorophenyl)-5-methyl-1H-1,2,3-triazole-4-carboxamide] | > 92 | 96 | 0.4
22 | CCc1c(C(=O)Nc2nc3ccc(F)cc3s2)nnn1-c1ccccc1F [YA4165, 5-Ethyl-N-(6-fluorobenzo[d]thiazol-2-yl)-1-(2-fluorophenyl)-1H-1,2,3-triazole-4-carboxamide] | > 92 |  | 0.5

Row | Compound | CC50 [1] [µM] | inhibition at 1 µM [2] [%] | IC50 [2] [nM]
23 | Cc1ccc(-c2csc(NC(=O)c3nnn(-c4ccccc4C)c3C)n2)c(C)c1 [YA4169] | > 92 |  | > 1000
24 | Cc1ccccc1-c1csc(NC(=O)c2nnn(-c3ccccc3C)c2C)n1 [YA4171] | > 92 |  | > 1000
25 | Cc1ccccc1-n1nnc(C(=O)Nc2nc(-c3ccccn3)cs2)c1C [YA4173] | > 92 | 7 | > 1000
26 | Cc1cc(Br)ccc1-n1nnc(C(=O)Nc2nc3ccccc3s2)c1C [YA6009] | > 92 | 15 | > 1000
27 | Cc1c(C(=O)Nc2nc3ccccc3s2)nnn1-c1ccccc1Cl [YA6027, N-(Benzo[d]thiazol-2-yl)-1-(2-chlorophenyl)-5-methyl-1H-1,2,3-triazole-4-carboxamide] | > 92 | 98 | 0.8
28 | Cc1c(C(=O)Nc2nc3ccccc3s2)nnn1-c1ccccc1 [YA6029, N-(Benzo[d]thiazol-2-yl)-5-methyl-1-phenyl-1H-1,2,3-triazole-4-carboxamide] | > 92 | 81 | 7.82
29 | Cc1ccccc1-n1nnc(C(=O)Nc2cnc3ccccc3n2)c1C [YA6045, 5-Methyl-N-(quinoxalin-2-yl)-1-(o-tolyl)-1H-1,2,3-triazole-4-carboxamide] | > 92 |  | 1.8
30 | Cc1ccccc1-n1nnc(C(=O)Nc2ccc3cccnc3n2)c1C [YA6047, 5-Methyl-N-(1,8-naphthyridin-2-yl)-1-(o-tolyl)-1H-1,2,3-triazole-4-carboxamide] | > 92 |  | > 1000
31 | Cc1ccccc1-n1nnc(C(=O)Nc2cccc3cccnc23)c1C [YA6055, 5-Methyl-N-(quinolin-8-yl)-1-(o-tolyl)-1H-1,2,3-triazole-4-carboxamide] | > 92 |  | > 1000
32 | Cc1ccccc1-n1nnc(C(=O)Nc2ccc3ncccc3c2)c1C [YA6056, 5-Methyl-N-(quinolin-6-yl)-1-(o-tolyl)-1H-1,2,3-triazole-4-carboxamide] | > 92 |  | > 1000
33 | Cc1ccccc1-n1nnc(C(=O)Nc2ncc3ccccc3n2)c1C [YA6061, 5-Methyl-N-(quinazolin-2-yl)-1-(o-tolyl)-1H-1,2,3-triazole-4-carboxamide] | > 92 |  | > 1000
34 | Cc1ccccc1-n1nnc(C(=O)Nc2ccc3cc(B4OC(C)(C)C(C)(C)O4)ccc3n2)c1C [YA6063] | > 92 |  | 148
35 | Cc1ccccc1-n1nnc(C(=O)Nc2ccc3cc(O)ccc3n2)c1C [YA6079] | > 92 |  | > 1000
36 | O=C(Nc1nc2ccccc2s1)c1csc(-c2ccccc2)n1 [YA6082] | > 92 | 70 | 470
37 | Cc1c(C(=O)Nc2nc3ccccc3s2)nnn1-c1ccccc1C(F)(F)F [YA6089, N-(Benzo[d]thiazol-2-yl)-5-methyl-1-(2-(trifluoromethyl)phenyl)-1H-1,2,3-triazole-4-carboxamide] | > 92 | 89 | 17
38 | Cc1c(C(=O)Nc2nc3ccccc3s2)nnn1-c1c(F)cccc1F [YA6090, N-(Benzo[d]thiazol-2-yl)-1-(2,6-difluorophenyl)-5-methyl-1H-1,2,3-triazole-4-carboxamide] | > 92 | 97 | 2.5
39 | COc1ccccc1-n1nnc(C(=O)Nc2cnc3ccccc3n2)c1C [YA6136, 1-(2-Methoxyphenyl)-5-methyl-N-(quinoxalin-2-yl)-1H-1,2,3-triazole-4-carboxamide] | > 92 |  | 1.8
40 | Cc1c(C(=O)Nc2cnc3ccccc3n2)nnn1-c1ccccc1C#N [YA6137, 1-(2-Cyanophenyl)-5-methyl-N-(quinoxalin-2-yl)-1H-1,2,3-triazole-4-carboxamide] | > 92 |  | 6
41 | Cc1c(C(=O)Nc2cnc3ccccc3n2)nnn1-c1ccccc1F [YA6138, 1-(2-Fluorophenyl)-5-methyl-N-(quinoxalin-2-yl)-1H-1,2,3-triazole-4-carboxamide] | > 92 |  | 0.15
42 | Cc1c(C(=O)Nc2cnc3ccccc3n2)nnn1-c1ccccc1Cl [YA6139, 1-(2-Chlorophenyl)-5-methyl-N-(quinoxalin-2-yl)-1H-1,2,3-triazole-4-carboxamide] | > 92 |  | 0.11
43 | Cc1c(C(=O)Nc2cnc3ccccc3n2)nnn1-c1ccccc1 [YA6141, 5-Methyl-1-phenyl-N-(quinoxalin-2-yl)-1H-1,2,3-triazole-4-carboxamide] | > 92 |  | 1.7
44 | CCc1c(C(=O)Nc2nc3ccccc3s2)cnn1-c1ccccc1 [YA6143, N-(Benzo[d]thiazol-2-yl)-5-ethyl-1-phenyl-1H-pyrazole-4-carboxamide] | > 92 |  | 3.6

From patent US20240279201A1, “DUAL WNT SIGNALING PATHWAY INHIBITORS AND AMPK ACTIVATORS FOR TREATMENTS OF DISEASE” (priority 2021, published 2024)
